This passage reports EC50 results from patent US12570642B2, “GLP-IR modulating compounds” (Gilead Sciences, Inc., priority 2021, dated 2026).

SMILES strings stand for the structures.

Sequence of GLP-1R (P43220 24-463): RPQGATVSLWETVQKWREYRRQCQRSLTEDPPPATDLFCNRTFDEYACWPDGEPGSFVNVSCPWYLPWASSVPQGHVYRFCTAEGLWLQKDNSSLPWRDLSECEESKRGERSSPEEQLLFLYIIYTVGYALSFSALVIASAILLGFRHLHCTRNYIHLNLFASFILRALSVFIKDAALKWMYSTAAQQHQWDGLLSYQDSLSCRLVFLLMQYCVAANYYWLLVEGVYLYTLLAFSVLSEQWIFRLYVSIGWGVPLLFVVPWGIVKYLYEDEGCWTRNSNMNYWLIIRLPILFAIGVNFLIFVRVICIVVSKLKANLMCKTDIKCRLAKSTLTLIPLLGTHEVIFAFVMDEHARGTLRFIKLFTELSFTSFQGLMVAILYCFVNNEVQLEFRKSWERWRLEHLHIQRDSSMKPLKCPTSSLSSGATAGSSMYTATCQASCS

The first assay addresses GLP-1R (Homo sapiens, UniProt P43220). The assay can be described thus: GLP-1R Activation - cAMP Assay. The assay is classed as cell-based. Conditions: […]; each compound run on one of the two cAMP assays (Assay 1 or Assay 2, not specified). The method, then:
GLP-1R Activation—cAMP Assay 1
GLP-1R activation by compounds of the present disclosure were quantified by measuring cAMP increase in CHO cells stably expressing GLP-1R (MultiSpan product #C1267-1a). The cells were harvested and plated in growth medium (DMEM/F-12 (Corning product #10-090-CV) supplemented with 10% FBS (HyClone product #SH30071-03), penicillin/streptomycin (Corning product #30-002CI) and 10 μg/ml puromycin (Gibco product #A11138-03)) at 1,000 cells/well in a 384-well plate (Greiner product #781080). The cells were then incubated overnight at 37° C., 5% CO2. The next day, the medium was removed and the cells were washed with DPBS (Corning product #21-031-CM) before adding the assay medium (HBSS, Corning product #21-023-CV) with 20 mM Hepes (Gibco product #15630-080) and 0.1% BSA (Rockland Immunochemicals product #BSA-1000)). Following the medium change, the cells were incubated for 1 hour at 37° C., 5% CO2. The tested GLP-1 compound was added to the cells in a 10-point dose response followed by a 30 minutes incubation at 37° C., 5% CO2. cAMP concentration increase was then detected using Cisbio's cAMP Gs Dynamic Kit (product #62AM4PEC) according to the manufacturer's protocol. The response was plotted against the log of the agonist concentration and fitted to a sigmoidal equation to determine the EC50.
In general terms: cAMP levels reflect the balance of adenylyl cyclase and phosphodiesterase activity.
By EC50 is commonly meant the concentration at which the effect is half-maximal. A high value points to weaker potency. For the compound `N#Cc1ccc(COc2cccc(-c3cc(F)c(Cc4nc5ccc(C(=O)O)cc5n4[C@@H]4CNC(=O)C4)cc3F)n2)c(F)c1` [Example 2, (S)-2-(4-(6-((4-cyano-2-fluorobenzyl)oxy)pyridin-2-yl)-2,5-difluorobenzyl)-1-(5-oxopyrrolidin-3-yl)-1H-benzo[d]imidazole-6-carboxylic acid], the EC50 turned out to be 156 nM.
With `N#Cc1ccc(COc2cccc(-c3cc(F)c(Cc4nc5ccc(C(=O)O)cc5n4[C@H]4CNC(=O)C4)cc3F)n2)c(F)c1` [Example 3, (R)-2-(4-(6-((4-cyano-2-fluorobenzyl)oxy)pyridin-2-yl)-2,5-difluorobenzyl)-1-(5-oxopyrrolidin-3-yl)-1H-benzo[d]imidazole-6-carboxylic acid], the EC50 stood at 11.5 nM.
As to `CC(=O)N1C[C@H](n2c(Cc3cc(F)c(-c4cccc(OCc5ccc(C#N)cc5F)n4)cc3F)nc3ccc(C(=O)O)cc32)C2(CC2)C1` [Example 14], the EC50 was 78.7 nM. This EC50 lies about 6.8-fold higher than the previous one.
In the case of `CC(=O)N1C[C@@H](n2c(Cc3cc(F)c(-c4cccc(OCc5ccc(C#N)cc5F)n4)cc3F)nc3ccc(C(=O)O)cc32)C2(CC2)C1` [Example 15, (S)-1-(5-acetyl-5-azaspiro[2.4]heptan-7-yl)-2-(4-(6-((4-cyano-2-fluorobenzyl)oxy)pyridin-2-yl)-2,5-difluorobenzyl)-1H-benzo[d]imidazole-6-carboxylic Acid], a half-maximal response (EC50) required 71 nM.
On the same count and under the same terms, to `CO[C@H]1CN(C(C)=O)C[C@@H]1n1c(Cc2cc(F)c(-c3cccc(OCc4ccc(C#N)cc4F)n3)cc2F)nc2ccc(C(=O)O)cc21` [Example 16, 1-((3S,4S)-1-acetyl-4-methoxypyrrolidin-3-yl)-2-(4-(6-((4-cyano-2-fluorobenzyl)oxy)pyridin-2-yl)-2,5-difluorobenzyl)-1H-benzo[d]imidazole-6-carboxylic Acid] belongs 4800 nM.
For the compound `CC(=O)N[C@@H]1COC[C@@H]1n1c(Cc2cc(F)c(-c3cccc(OCc4ccc(C#N)cc4F)n3)cc2F)nc2ccc(C(=O)O)cc21` [Example 17, 1-((3R,4S)-4-acetamidotetrahydrofuran-3-yl)-2-(4-(6-((4-cyano-2-fluorobenzyl)oxy)pyridin-2-yl)-2,5-difluorobenzyl)-1H-benzo[d]imidazole-6-carboxylic Acid], the EC50 came to 5.61 nM. This EC50 lies about 860-fold lower than the previous one.

Staying with this assay, now noted: cAMP increase in CHO cells stably expressing GLP-1R; each compound run on one of the two cAMP assays (Assay 1 or Assay 2, not specified).
`N#Cc1ccc(COc2cccc(-c3cc(F)c(Cc4nc5ccc(C(=O)O)cc5n4[C@@H]4C[C@@H]4C(F)F)cc3F)n2)c(F)c1` [Example 4, 2-(4-(6-((4-cyano-2-fluorobenzyl)oxy)pyridin-2-yl)-2,5-difluorobenzyl)-1-((1R,2S)-2-(difluoromethyl)cyclopropyl)-1H-benzo[d]imidazole-6-carboxylic acid] gave an EC50 of 2.65 nM.
For `N#Cc1ccc(COc2cccc(-c3cc(F)c(Cc4nc5ccc(C(=O)O)cc5n4[C@@H]4CCOC4)cc3F)n2)c(F)c1` [Example 5, (R)-2-(4-(6-((4-cyano-2-fluorobenzyl)oxy)pyridin-2-yl)-2,5-difluorobenzyl)-1-(tetrahydrofuran-3-yl)-1H-benzo[d]imidazole-6-carboxylic acid], the EC50 is 0.77 nM.
Still for that read-out and setting: as for `N#Cc1ccc(COc2cccc(-c3cc(F)c(Cc4nc5ccc(C(=O)O)cc5n4C4CCCC4)cc3F)n2)c(F)c1` [Example 6, 2-(4-(6-((4-cyano-2-fluorobenzyl)oxy)pyridin-2-yl)-2,5-difluorobenzyl)-1-cyclopentyl-1H-benzo[d]imidazole-6-carboxylic acid], the figure is 8.49 nM; as for `COCCn1c(Cc2cc(F)c(-c3cccc(OCc4ccc(-c5cnn(C(F)(F)F)c5)cc4F)n3)cc2F)nc2ccc(C(=O)O)cc21` [Example 7, 2-(2,5-difluoro-4-(6-((2-fluoro-4-(1-(trifluoromethyl)-1H-pyrazol-4-yl)benzyl)oxy)pyridin-2-yl)benzyl)-1-(2-methoxyethyl)-1H-benzo[d]imidazole-6-carboxylic acid], 0.6 nM; as for `CC1(C)COC[C@@H]1n1c(Cc2cc(F)c(-c3cccc(OCc4ccc(C#N)cc4F)n3)cc2F)nc2c(F)cc(C(=O)O)cc21` [Example 11, (R)-2-(4-(6-((4-cyano-2-fluorobenzyl)oxy)pyridin-2-yl)-2,5-difluorobenzyl)-1-(4,4-dimethyltetrahydrofuran-3-yl)-4-fluoro-1H-benzo[d]imidazole-6-carboxylic Acid], 0.26 nM.
`CC1(C)COC[C@H]1n1c(Cc2cc(F)c(-c3cccc(OCc4ccc(C#N)cc4F)n3)cc2F)nc2c(F)cc(C(=O)O)cc21` [Example 12, (S)-2-(4-(6-((4-cyano-2-fluorobenzyl)oxy)pyridin-2-yl)-2,5-difluorobenzyl)-1-(4,4-dimethyltetrahydrofuran-3-yl)-4-fluoro-1H-benzo[d]imidazole-6-carboxylic Acid] gave an EC50 of 0.03 nM. Against the preceding compound, the EC50 is about 8.7-fold lower.
On to `CC1(C)COCC1n1c(Cc2cc(F)c(-c3cccc(OCc4ccc(C#N)cc4F)n3)cc2F)nc2c(Br)cc(C(=O)O)cc21` (stereo not shown) [Example 13, 4-bromo-2-(4-(6-((4-cyano-2-fluorobenzyl)oxy)pyridin-2-yl)-2,5-difluorobenzyl)-1-(4,4-dimethyltetrahydrofuran-3-yl)-1H-benzo[d]imidazole-6-carboxylic Acid], for which a half-maximal effect (EC50) was put at 0.19 nM.
Same read-out and setting: to `CC(=O)N1C[C@@H]2[C@H](n3c(Cc4cc(F)c(-c5cccc(OCc6ccc(C#N)cc6F)n5)cc4F)nc4ccc(C(=O)O)cc43)CO[C@@H]2C1` [Example 18, 1-((3S,3aR,6aS)-5-acetylhexahydro-2H-furo[2,3-c]pyrrol-3-yl)-2-(4-(6-((4-cyano-2-fluorobenzyl)oxy)pyridin-2-yl)-2,5-difluorobenzyl)-1H-benzo[d]imidazole-6-carboxylic Acid] belongs 49.2 nM.
The compound `N#Cc1ccc(COc2cccc(-c3cc(F)c(Cc4nc5ccc(C(=O)O)cc5n4[C@@H]4CO[C@H]5OCC[C@H]54)cc3F)n2)c(F)c1` [Example 19] had an EC50 of 0.6 nM.
Compound `N#Cc1ccc(COc2cccc(-c3cc(F)c(Cc4nc5ccc(C(=O)O)cc5n4[C@H]4CO[C@H]5OCC[C@H]54)cc3F)n2)c(F)c1` [Example 20, 2-(4-(6-((4-cyano-2-fluorobenzyl)oxy)pyridin-2-yl)-2,5-difluorobenzyl)-1-((3R,3aS,6aR)-hexahydrofuro[2,3-b]furan-3-yl)-1H-benzo[d]imidazole-6-carboxylic Acid] yielded an EC50 of 0.35 nM.
Still for that read-out and setting: as for `CC1(C)COCC1n1c(Cc2cc(F)c(-c3cccc(OCc4ccc(C(F)F)cc4F)n3)cc2F)nc2ccc(C(=O)O)cc21` (stereo not shown) [Example 21, 2-(4-(6-((4-(difluoromethyl)-2-fluorobenzyl)oxy)pyridin-2-yl)-2,5-difluorobenzyl)-1-(4,4-dimethyltetrahydrofuran-3-yl)-1H-benzo[d]imidazole-6-carboxylic Acid], the figure is 0.11 nM.
Consider `CC(Cn1c(Cc2cc(F)c(-c3cccc(OCc4ccc(C#N)cc4F)n3)cc2F)nc2ccc(C(=O)O)cc21)OC(F)F` (stereo not shown) [Example 22, 2-(4-(6-((4-cyano-2-fluorobenzyl)oxy)pyridin-2-yl)-2,5-difluorobenzyl)-1-(2-(difluoromethoxy)propyl)-1H-benzo[d]imidazole-6-carboxylic Acid], for which the EC50 turned out to be 0.72 nM.
`COCCn1c(Cc2cc(F)c(-c3cccc(OCc4ncc(Br)cc4F)n3)cc2F)nc2ccc(C(=O)O)cc21` [Example 23]: it took 4.57 nM to reach a half-maximal effect (EC50).
On to `COCCn1c(Cc2cc(F)c(-c3cccc(OCc4cnc(Cl)cn4)n3)cc2F)nc2ccc(C(=O)O)cc21` [Example 24, 2-(4-(6-((5-chloropyrazin-2-yl)methoxy)pyridin-2-yl)-2,5-difluorobenzyl)-1-(2-methoxyethyl)-1H-benzo[d]imidazole-6-carboxylic Acid], for which the midpoint of the response, the EC50, lay at 9.96 nM.
`COCCn1c(Cc2cc(F)c(-c3cccc(OCc4ccc(C)nc4C)n3)cc2F)nc2ccc(C(=O)O)cc21` [Example 25] displayed an EC50 of 7.55 nM.
As to `COCCn1c(Cc2cc(F)c(-c3cccc(OCc4cc(F)ccc4F)n3)cc2F)nc2ccc(C(=O)O)cc21` [Example 26, 2-(4-(6-((2,5-difluorobenzyl)oxy)pyridin-2-yl)-2,5-difluorobenzyl)-1-(2-methoxyethyl)-1H-benzo[d]imidazole-6-carboxylic Acid], the EC50 came out at 18.7 nM.
`COCCn1c(Cc2cc(F)c(-c3cccc(OCc4cc(F)c(F)cc4F)n3)cc2F)nc2ccc(C(=O)O)cc21` [Example 27, 2-(2,5-difluoro-4-(6-((2,4,5-trifluorobenzyl)oxy)pyridin-2-yl)benzyl)-1-(2-methoxyethyl)-1H-benzo[d]imidazole-6-carboxylic Acid]: it took 13.1 nM to reach a half-maximal effect (EC50).
Compound `COCCn1c(Cc2cc(F)c(-c3cccc(OCc4cc(F)c(C)cc4F)n3)cc2F)nc2ccc(C(=O)O)cc21` [Example 28, 2-(4-(6-((2,5-difluoro-4-methylbenzyl)oxy)pyridin-2-yl)-2,5-difluorobenzyl)-1-(2-methoxyethyl)-1H-benzo[d]imidazole-6-carboxylic Acid] registered an EC50 of 1.46 nM.
The compound `COCCn1c(Cc2cc(F)c(-c3cccc(OCc4cnc(C)cn4)n3)cc2F)nc2ccc(C(=O)O)cc21` [Example 29, 2-(2,5-difluoro-4-(6-((5-methylpyrazin-2-yl)methoxy)pyridin-2-yl)benzyl)-1-(2-methoxyethyl)-1H-benzo[d]imidazole-6-carboxylic Acid] showed an EC50 of 36 nM. This EC50 lies about 25-fold higher than the previous one.
